{"source": "patent US9034826B2", "about": "“Use of epidermal growth factor for the morphofunctional restoration of peripheral nerves in diabetic neuropathy” (Centro de Ingenieria Genetica y Biotecnologia, priority 2006, dated 2015)", "assay_type_in_all_cases": "in vivo, Wistar rats", "key": {"sciatic nerve": {"tested_on": "sciatic nerve", "assay": "Histomorphometric study on fragments of the sciatic nerve, reversion study (Example 2)", "conditions": "established diabetic neuropathy, 100 μg EGF in 1 ml i.p. 3 days a week, evaluation after 30 days", "procedure": "The aim of this study was to evaluate the neurorestoration effect of the pharmaceutical composition. Male Wistar rats between 200-250 grams of body is weight received a subcutaneous injection of streptozotocin at 75 mg/kg in sodium citrate buffer, and were allowed to evolve until 120 days after disease induction. All rats used in this experiment had shown sustained glucose levels above 15 mmol/L. Animals were handled and fed as previously described. A concurrent control group was set, where animals received saline instead of streptozotocin. […] After this period an electrophysiological characterization of all rats were done and animals were split in two random treatment groups:\nGroup II. Animals received the pharmaceutical composition with 100 μg of EGF in 1 ml, 3 days a week, by intraperitoneal route.\nOne month after conclusion of the treatment with either EGF containing composition or saline, and […] after disease induction, animals were sacrificed by an overdose of anesthesia and perfused with saline buffer pH 7.4. A total of ten animals per experimental group were included for histomorphometric studies, and an equivalent number of rats were used for biochemical determinations. In both systems the sciatic nerves from both limbs were dissected. The procedures were similar to those described for the neuropathic damage prevention assay. Samples taken for histological and o histomorphometric studies were stained with hematoxilin/eosin and toluidine blue. At least five fragments of the same nerve were quantitatively studied using MADIP program. The fragments were included in OCT blocks, post-fixed with glutaraldehyde, and sliced horizontal and transversally. The histological indicators assessed have been described above as well as the procedures used for the processing and evaluation: • Total number of blood vessels (in epineural/perineural) in 10 microscopic fields using 10× as constant magnification in longitudinal cuts of the nerve. • Percentage of demyelinated fibers. Evaluated by averaging the values per microscopic field (×20, at least five fields). • Percentage of myelin or non-myelin fibers with lesions (dilated or distorted) per microscopic field (×20, at least five fields). • Percentage of endoneurial collagenization (moderated: 25 to 50%; severe: more than 50% of the endoneurial area in transversal slices, and at least three different sections."}, "[1]": {"tested_on": "Redox state in fragments from the sciatic nerve", "assay": "Redox profile in fragments from the sciatic nerve, prevention study (Example 1)", "procedure": "(§1) Male Wistar, with 200-250 grams of body weight, received a subcutaneous injection of streptozotocin, at 75 mg/kg in sodium citrate buffer. Water was then replaced by a 10% sucrose solution during the next 24 h, to prevent deaths caused by hypoglycemia. Glucose levels in blood were monitored every morning during the next 72 hours after the injection. Only animals with sustained glucose values above 15 mmol/L were used. Rats were housing at 4 per cage and fed in the conventional way. A concurrent group of other 80 rats received citrate buffer without streptozotocin and was handled in a similar fashion to the diabetic group. The average value for glycemia during the 72 hours in this group was 5.87 mmol/L.\n(§2) All treatments were conducted during 8 weeks, starting one week after streptozotocin injection. The composition used contained 75 μg of human recombinant EGF/ml. Several types of observations were conducted in the animals under study:\nOnce the treatment was concluded, animals were sacrificed at day 70 after induction of diabetes, 10 days after the last dose was given, and the analysis described above is was completed. Animals were sacrificed by an overdose of anesthesia and perfused with saline buffer pH 7.4. A total of ten animals per experimental group were included for histomorphometric studies, and an equivalent number of rats were used for biochemical determinations. In both systems the sciatic nerves from both limbs were dissected; fragments were kept at −70° C. until processed. The samples taken for histological and/or histomorphometric studies were stained with hematoxilin/eosin and toluidine blue. At least five fragments of the same nerve were quantitatively studied using MADIP program. The fragments were included in blocks of celloidine and gelatin, and those blocks were horizontal and transversally sliced. The following histological indicators were evaluated: • Total number of blood vessels (in epineural/perineural) in 10 microscopic fields using 10× as constant magnification in longitudinal cuts of the nerve. • Percentage of demyelinated fibers. Evaluated by averaging the values per microscopic field (×20, at least five fields). • Percentage of myelin or non-myelin fibers with lesions (dilated or distorted) per microscopic field (×20, at least five fields). • Percentage of endoneurial collagenization (moderated: 25 to 50%; severe: more than 50% of the endoneurial area in transversal slices, and at least three different sections.\nTen animals per experimental group were used to conduct biochemical determinations in the fragments of sciatic nerve collected. The biochemical parameters studied were the following:\nRedox Profile: • Activity of total Superoxide Dismutase enzyme (tSOD). • Activity of catalase enzyme. • Intra-axonal accumulation of total hydroperoxides (HPT). • Intra-axonal accumulation of malonyldialdehyde (MDA)."}, "diabetic rats": {"tested_on": "diabetic rats", "assay": "Nociceptive threshold (NCT) pain test, prevention of diabetic neuropathy (Example 1)", "conditions": "75 μg EGF/ml", "procedure": "as §1, with “group.” for “group. The average value for glycemia during the 72 hours in this group was 5.87 mmol/L.”\nas §2\nThe pain test, by application of an increasing pressure in the tail, was carried out at days 28 and 56 after initiation of the treatment, using 10 animals per each one of the experimental groups. NCT, expressed in grams, was determined by using an Ugo Basile type analgesimeter to apply a gradually increasing pressure to the tail of the animals until they developed a withdrawal reflex. In human diabetic neuropathy the nociceptive threshold is reduced."}, "[2]": {"conditions": "Treatment group 1 (once weekly i.p., 8 weeks)"}, "[3]": {"conditions": "Treatment group 3 (three times a week i.p., 8 weeks)"}}}
{"substance": "EGF containing pharmaceutical composition: Composition with human recombinant EGF: 75 μg/ml in Example 1, 100 μg in 1 ml in Example 2, given intraperitoneally", "values": [{"measurement": "% of collagenized area", "setting": "sciatic nerve", "result": "46.3 ± 9.5", "unit": "%"}, {"measurement": "% of demyelinated fibers", "setting": "sciatic nerve", "result": "50.6 ± 12.3", "unit": "%"}, {"measurement": "% of fibers with lesions", "setting": "sciatic nerve", "result": "52.6 ± 8.3", "unit": "%"}, {"measurement": "No. of blood vessels", "setting": "sciatic nerve; 10 microscopic fields", "result": "86.5 ± 14.6"}, {"measurement": "Catalase activity", "setting": "[1]; [2]", "result": "274.60 ± 52.3 units per milligram, of protein per minute"}, {"measurement": "HPT (total hydroperoxides)", "setting": "[1]; [2]", "result": "143.05 ± 1.98 nmol/mg of protein"}, {"measurement": "MDA (malonyldialdehyde)", "setting": "[1]; [2]", "result": "0.24 ± 0.04 nmol/mg of protein"}, {"measurement": "tSOD (total Superoxide Dismutase activity)", "setting": "[1]; [2]", "result": "958.17 ± 244.61 units per milligram, of protein per minute"}, {"measurement": "Catalase activity", "setting": "[1]; [3]", "result": "37.62 ± 8.13 units per milligram, of protein per minute"}, {"measurement": "HPT (total hydroperoxides)", "setting": "[1]; [3]", "result": "25.15 ± 1.81 nmol/mg of protein"}, {"measurement": "MDA (malonyldialdehyde)", "setting": "[1]; [3]", "result": "0.08 ± 0.02 nmol/mg of protein"}, {"measurement": "tSOD (total Superoxide Dismutase activity)", "setting": "[1]; [3]", "result": "2102.83 ± 112.67 units per milligram, of protein per minute"}, {"measurement": "NCT", "setting": "diabetic rats; 1 ml i.p. once weekly (Treatment group 1), day 28", "result": "125 ± 18", "unit": "grams"}, {"measurement": "NCT", "setting": "diabetic rats; 1 ml i.p. three times a week (Treatment group 3), day 28", "result": "123 ± 16", "unit": "grams"}, {"measurement": "NCT", "setting": "diabetic rats; 1 ml i.p. three times a week (Treatment group 3), day 56", "result": "121 ± 22", "unit": "grams"}]}
